Results reported in the NIST ThermoML archive (doi:10.1021/je020042y).
± gives the expanded uncertainty stated by the source.

Assay: molar heat capacity at saturation pressure
Settings: Liquid

Row | Compound | molar heat capacity (284.16 K) | molar heat capacity (286.66 K) | molar heat capacity (289.15 K) | molar heat capacity (291.66 K) | molar heat capacity (294.15 K) | molar heat capacity (296.65 K) | molar heat capacity (298.15 K) | molar heat capacity (299.16 K) | molar heat capacity (301.65 K) | molar heat capacity (304.16 K) | molar heat capacity (308.56 K) | molar heat capacity (309.15 K) | molar heat capacity (311.66 K) | molar heat capacity (314.15 K) | molar heat capacity (316.65 K) | molar heat capacity (319.16 K) | molar heat capacity (321.65 K) | molar heat capacity (324.16 K) | molar heat capacity (326.65 K) | molar heat capacity (329.15 K) | other results
1 | ClCCCCCCCl [1,6-dichlorohexane] | 236.57 ± 1.8 J/K/mol | 237.13 ± 1.8 J/K/mol | 237.89 ± 1.8 J/K/mol | 238.51 ± 1.9 J/K/mol | 239.26 ± 1.9 J/K/mol | 239.89 ± 1.9 J/K/mol | 240.39 ± 1.9 J/K/mol | 240.68 ± 1.9 J/K/mol | 241.35 ± 1.9 J/K/mol | 242 ± 1.9 J/K/mol | 243 ± 1.9 J/K/mol | 243.48 ± 1.9 J/K/mol | 244.27 ± 1.9 J/K/mol | 245.06 ± 1.9 J/K/mol | 245.79 ± 1.9 J/K/mol | 246.57 ± 1.9 J/K/mol | 247.24 ± 1.9 J/K/mol | 247.78 ± 1.9 J/K/mol | 248.95 ± 1.9 J/K/mol | 249.58 ± 1.9 J/K/mol | molar heat capacity (331.66 K): 250.36 ± 1.9 J/K/mol; molar heat capacity (334.15 K): 251.24 ± 1.9 J/K/mol; molar heat capacity (336.66 K): 252 ± 1.9 J/K/mol; molar heat capacity (339.16 K): 252.72 ± 2 J/K/mol; molar heat capacity (341.65 K): 253.7 ± 2 J/K/mol; molar heat capacity (344.16 K): 254.49 ± 2 J/K/mol; molar heat capacity (346.65 K): 255.12 ± 2 J/K/mol; molar heat capacity (349.15 K): 255.75 ± 2 J/K/mol; molar heat capacity (351.66 K): 257 ± 2 J/K/mol; molar heat capacity (353.14 K): 257.47 ± 2 J/K/mol
2 | Cc1ccccc1 [toluene] |  |  |  |  |  |  |  |  |  |  |  |  |  |  |  |  |  |  |  |  | molar heat capacity (283.15 K): 152.85 ± 1.2 J/K/mol; molar heat capacity (293.15 K): 155.56 ± 1.2 J/K/mol; molar heat capacity (303.15 K): 158.38 ± 1.2 J/K/mol; molar heat capacity (313.15 K): 161.47 ± 1.2 J/K/mol; molar heat capacity (323.15 K): 164.51 ± 1.3 J/K/mol; molar heat capacity (333.15 K): 167.63 ± 1.3 J/K/mol; molar heat capacity (343.15 K): 170.85 ± 1.3 J/K/mol
3 | ClCCCCCCl [1,5-dichloropentane] | 209.5 ± 1.6 J/K/mol | 210.04 ± 1.6 J/K/mol | 210.65 ± 1.6 J/K/mol | 211.2 ± 1.6 J/K/mol | 211.7 ± 1.6 J/K/mol | 212.19 ± 1.6 J/K/mol | 212.63 ± 1.6 J/K/mol | 212.96 ± 1.6 J/K/mol | 213.55 ± 1.6 J/K/mol | 214.12 ± 1.7 J/K/mol | 215.36 ± 1.7 J/K/mol | 215.26 ± 1.7 J/K/mol | 215.96 ± 1.7 J/K/mol | 216.61 ± 1.7 J/K/mol | 217.17 ± 1.7 J/K/mol | 217.92 ± 1.7 J/K/mol | 218.56 ± 1.7 J/K/mol | 219 ± 1.7 J/K/mol | 219.91 ± 1.7 J/K/mol | 220.61 ± 1.7 J/K/mol | molar heat capacity (331.66 K): 221.16 ± 1.7 J/K/mol; molar heat capacity (334.15 K): 221.76 ± 1.7 J/K/mol; molar heat capacity (336.66 K): 222.43 ± 1.7 J/K/mol; molar heat capacity (339.16 K): 223.1 ± 1.7 J/K/mol; molar heat capacity (341.65 K): 223.58 ± 1.7 J/K/mol; molar heat capacity (344.16 K): 224.7 ± 1.7 J/K/mol; molar heat capacity (346.65 K): 225.01 ± 1.7 J/K/mol; molar heat capacity (349.15 K): 225.75 ± 1.8 J/K/mol; molar heat capacity (351.66 K): 226.41 ± 1.8 J/K/mol; molar heat capacity (353.14 K): 227.13 ± 1.8 J/K/mol
4 | ClCCCl [1,2-dichloroethane] | 128.02 ± 0.99 J/K/mol | 128.21 ± 0.99 J/K/mol | 128.39 ± 0.99 J/K/mol | 128.58 ± 1 J/K/mol | 128.75 ± 1 J/K/mol | 128.94 ± 1 J/K/mol | 129.06 ± 1 J/K/mol | 129.11 ± 1 J/K/mol | 129.39 ± 1 J/K/mol | 129.47 ± 1 J/K/mol | 129.86 ± 1 J/K/mol | 129.86 ± 1 J/K/mol | 130.16 ± 1 J/K/mol | 130.4 ± 1 J/K/mol | 130.55 ± 1 J/K/mol | 130.88 ± 1 J/K/mol | 131.09 ± 1 J/K/mol | 131.2 ± 1 J/K/mol | 131.56 ± 1 J/K/mol | 131.87 ± 1 J/K/mol | molar heat capacity (331.66 K): 132.06 ± 1 J/K/mol; molar heat capacity (334.15 K): 132.24 ± 1 J/K/mol; molar heat capacity (336.66 K): 132.59 ± 1 J/K/mol; molar heat capacity (339.16 K): 132.82 ± 1 J/K/mol; molar heat capacity (341.65 K): 132.96 ± 1 J/K/mol; molar heat capacity (344.16 K): 133.32 ± 1 J/K/mol; molar heat capacity (346.65 K): 133.59 ± 1 J/K/mol; molar heat capacity (349.15 K): 133.83 ± 1 J/K/mol; molar heat capacity (351.66 K): 134.22 ± 1 J/K/mol; molar heat capacity (353.14 K): 134.46 ± 1 J/K/mol
5 | CCCCO [butan-1-ol] |  |  |  |  |  |  |  |  |  |  |  |  |  |  |  |  |  |  |  |  | molar heat capacity (303.15 K): 181.16 ± 1.4 J/K/mol; molar heat capacity (313.15 K): 188.39 ± 1.5 J/K/mol; molar heat capacity (323.15 K): 196.66 ± 1.5 J/K/mol; molar heat capacity (333.15 K): 205.33 ± 1.6 J/K/mol; molar heat capacity (343.15 K): 214.22 ± 1.7 J/K/mol
6 | O [water] |  |  |  |  |  |  |  |  |  |  |  |  |  |  |  |  |  |  |  |  | molar heat capacity (283.15 K): 75.47 ± 0.58 J/K/mol; molar heat capacity (293.15 K): 75.29 ± 0.58 J/K/mol; molar heat capacity (303.15 K): 75.29 ± 0.58 J/K/mol; molar heat capacity (313.15 K): 75.34 ± 0.58 J/K/mol; molar heat capacity (323.15 K): 75.32 ± 0.58 J/K/mol; molar heat capacity (333.15 K): 75.33 ± 0.58 J/K/mol; molar heat capacity (343.15 K): 75.38 ± 0.58 J/K/mol
7 | ClCCCCCl [1,4-dichlorobutane] | 181.25 ± 1.4 J/K/mol | 181.71 ± 1.4 J/K/mol | 182.15 ± 1.4 J/K/mol | 182.62 ± 1.4 J/K/mol | 182.99 ± 1.4 J/K/mol | 183.49 ± 1.4 J/K/mol | 183.76 ± 1.4 J/K/mol | 183.89 ± 1.4 J/K/mol | 184.47 ± 1.4 J/K/mol | 184.8 ± 1.4 J/K/mol | 185.71 ± 1.4 J/K/mol | 185.83 ± 1.4 J/K/mol | 186.41 ± 1.4 J/K/mol | 186.88 ± 1.4 J/K/mol | 187.38 ± 1.4 J/K/mol | 187.89 ± 1.5 J/K/mol | 188.52 ± 1.5 J/K/mol | 188.85 ± 1.5 J/K/mol | 189.48 ± 1.5 J/K/mol | 190.01 ± 1.5 J/K/mol | molar heat capacity (331.66 K): 190.54 ± 1.5 J/K/mol; molar heat capacity (334.15 K): 190.99 ± 1.5 J/K/mol; molar heat capacity (336.66 K): 191.48 ± 1.5 J/K/mol; molar heat capacity (339.16 K): 192 ± 1.5 J/K/mol; molar heat capacity (341.65 K): 192.36 ± 1.5 J/K/mol; molar heat capacity (344.16 K): 193.05 ± 1.5 J/K/mol; molar heat capacity (346.65 K): 193.63 ± 1.5 J/K/mol; molar heat capacity (349.15 K): 194 ± 1.5 J/K/mol; molar heat capacity (351.66 K): 194.7 ± 1.5 J/K/mol; molar heat capacity (353.14 K): 195.12 ± 1.5 J/K/mol
8 | ClCCCCl [1,3-dichloropropane] | 154.94 ± 1.2 J/K/mol | 155.4 ± 1.2 J/K/mol | 155.76 ± 1.2 J/K/mol | 156.11 ± 1.2 J/K/mol | 156.39 ± 1.2 J/K/mol | 156.76 ± 1.2 J/K/mol | 157.03 ± 1.2 J/K/mol | 157.2 ± 1.2 J/K/mol | 157.65 ± 1.2 J/K/mol | 157.89 ± 1.2 J/K/mol | 158.63 ± 1.2 J/K/mol | 158.67 ± 1.2 J/K/mol | 159.23 ± 1.2 J/K/mol | 159.54 ± 1.2 J/K/mol | 159.89 ± 1.2 J/K/mol | 160.47 ± 1.2 J/K/mol | 160.93 ± 1.2 J/K/mol | 161.01 ± 1.2 J/K/mol | 161.59 ± 1.2 J/K/mol | 162.11 ± 1.3 J/K/mol | molar heat capacity (331.66 K): 162.48 ± 1.3 J/K/mol; molar heat capacity (334.15 K): 162.96 ± 1.3 J/K/mol; molar heat capacity (336.66 K): 163.33 ± 1.3 J/K/mol; molar heat capacity (339.16 K): 163.82 ± 1.3 J/K/mol; molar heat capacity (341.65 K): 164.1 ± 1.3 J/K/mol; molar heat capacity (344.16 K): 164.44 ± 1.3 J/K/mol; molar heat capacity (346.65 K): 165.1 ± 1.3 J/K/mol; molar heat capacity (349.15 K): 165.38 ± 1.3 J/K/mol; molar heat capacity (351.66 K): 165.81 ± 1.3 J/K/mol; molar heat capacity (353.14 K): 166.22 ± 1.3 J/K/mol
